Read-outs that look alike come from different tables or passages of the source.
Key:
human SCD1 = biological target: T1, human SCD1 (Homo sapiens, UniProt O00767); assay: Growth inhibition of yeast strain expressing human SCD1 as sole desaturase (OLE1 deleted), OD600 readout; type: cell-based
T1 construct: expressed in transfected cells; host or cells: yeast strain with OLE1 deleted, plasmid-borne human SCD1 (selected in SD-Ura)
T1 sequence (O00767 1-359): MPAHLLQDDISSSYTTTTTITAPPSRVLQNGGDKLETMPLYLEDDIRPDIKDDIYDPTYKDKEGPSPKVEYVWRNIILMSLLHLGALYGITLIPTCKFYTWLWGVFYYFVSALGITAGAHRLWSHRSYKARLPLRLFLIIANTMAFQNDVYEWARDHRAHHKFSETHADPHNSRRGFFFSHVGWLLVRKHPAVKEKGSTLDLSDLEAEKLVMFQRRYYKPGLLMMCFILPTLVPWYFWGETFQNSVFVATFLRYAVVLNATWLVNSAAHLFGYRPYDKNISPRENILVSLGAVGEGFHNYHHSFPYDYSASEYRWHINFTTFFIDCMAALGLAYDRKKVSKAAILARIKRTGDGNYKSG

human SCD5 = biological target: T2, human SCD5 (Homo sapiens, UniProt Q86SK9); assay: Growth inhibition of yeast strain expressing human SCD5 as sole desaturase (OLE1 deleted), OD600 readout; type: cell-based
T2 construct: expressed in transfected cells; host or cells: yeast strain with OLE1 deleted, plasmid-borne human SCD5 (selected in SD-Ura)
T2 sequence (Q86SK9 1-330): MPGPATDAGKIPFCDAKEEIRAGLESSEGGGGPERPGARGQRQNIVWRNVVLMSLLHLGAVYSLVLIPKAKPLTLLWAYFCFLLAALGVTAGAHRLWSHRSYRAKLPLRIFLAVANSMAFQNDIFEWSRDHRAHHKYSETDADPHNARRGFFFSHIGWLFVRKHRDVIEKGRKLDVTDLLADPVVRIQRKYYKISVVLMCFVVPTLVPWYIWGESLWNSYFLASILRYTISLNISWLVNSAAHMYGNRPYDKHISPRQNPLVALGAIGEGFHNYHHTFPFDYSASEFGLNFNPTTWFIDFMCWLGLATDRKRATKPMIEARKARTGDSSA

[1] = yeast strain expressing human SCD1 as sole desaturase, growth (OD600) after 40 h at 30° C., read-out: SCD1 IC50
[2] = yeast strain expressing human SCD5 as sole desaturase, growth (OD600) after 40 h at 30° C., read-out: SCD5 IC50

Row | SMILES | IC50 (human SCD1; [1]) [nM] | IC50 (human SCD5; [2]) [nM] | IC50 (human SCD1; SCD1 IC50) [nM] | IC50 (human SCD5; SCD5 IC50) [nM]
1 | CN1N=C(C(=O)Nc2ccc(Cc3cccc(C4CC4)c3)nn2)CCC1=O [Compound 187, N-(6-(3-cyclopropylbenzyl)pyridazin-3-yl)-1-methyl-6-oxo-1,4,5,6-tetrahydropyridazine-3-carboxamide] | > 45000 | 6510 |  | 
2 | Cn1cc(C(=O)Nc2ccc(COc3cccc(Cl)c3)cn2)ccc1=O [Compound 172, N-(5-((3-chlorophenoxy)methyl)pyridin-2-yl)-1-methyl-6-oxo-1,6-dihydropyridine-3-carboxamide] | 2290 | 370 |  | 
3 | Cc1ccc(Cc2ccc(NC(=O)c3ccc(=O)n(C)c3)nc2)cn1 [Compound 449] | > 45000 | > 45000 |  | 
4 | N#Cc1cnc(C(=O)Nc2ccc(Cc3cccc(F)c3)cn2)nc1 [Compound 500] | > 45000 | 10 |  | 
5 | COc1cc(Cc2ccc(NC(=O)c3ccc(=O)n(C)c3)nc2)ccc1F [Compound 54, N-(5-(4-fluoro-3-methoxybenzyl)pyridin-2-yl)-1-methyl-6-oxo-1,6-dihydropyridine-3-carboxamide] |  |  | 12000 | 580
6 | Cn1cc(NC(=O)c2ccc(Cc3cccc(Cl)c3)nn2)ccc1=O [Compound 189, 6-(3-chlorobenzyl)-N-(1-methyl-6-oxo-1,6-dihydropyridin-3-yl)pyridazine-3-carboxamide] | > 45000 | 5070 |  | 
7 | CN1N=C(C(=O)Nc2ccc(Cc3ccc(F)c(Cl)c3)nn2)CCC1=O [Compound 179, N-(6-(3-chloro-4-fluorobenzyl)pyridazin-3-yl)-1-methyl-6-oxo-1,4,5,6-tetrahydropyridazine-3-carboxamide] | > 45000 | 1030 |  | 
8 | Cn1nc(NC(=O)N[C@H]2CC[C@H](Cc3cccc(Cl)c3)CC2)ccc1=O [Compound 434] | > 45000 | > 45000 |  | 
9 | CN1N=C(C(=O)Nc2ccc(Cc3ccc(Cl)s3)nn2)CCC1=O [Compound 247] | > 45000 | 2020 |  | 
10 | Cc1cc(C(=O)Nc2ccc(Cc3cccc(F)c3)cn2)nn(C)c1=O [Compound 251] | > 45000 | 150 |  | 
11 | CN1N=C(C(=O)Nc2ccc(CCc3cccc(Cl)c3)cn2)CCC1=O [Compound 296] | > 45000 | 860 |  | 
12 | COCc1ncc(C(=O)Nc2ccc(Cc3cccc(Cl)c3)cn2)c(OC)n1 [Compound 110, N-(5-(3-chlorobenzyl)pyridin-2-yl)-4-methoxy-2-(methoxymethyl)pyrimidine-5-carboxamide] | 3940 | 220 |  | 
13 | CN1N=C(C(=O)Nc2ccc(Cc3cccc(F)c3)cc2)CCC1=O [Compound 1, N-(4-(3-fluorobenzyl)phenyl)-1-methyl-6-oxo-1,4,5,6-tetrahydropyridazine-3-carboxamide] | > 45000 | 5160 |  | 
14 | CN1N=C(C(=O)Nc2ccc(Cc3cccc(Cl)c3)cn2)CC1=O [Compound 105, N-(5-(3-chlorobenzyl)pyridin-2-yl)-1-methyl-5-oxo-4,5-dihydro-1H-pyrazole-3-carboxamide] | > 45000 | 830 |  | 
15 | O=C(Nc1ccc(Cc2cc(F)cc(Cl)c2)cn1)c1ccc(=O)n(C2CC2)n1 [Compound 74, N-(5-(3-chloro-5-fluorobenzyl)pyridin-2-yl)-1-cyclopropyl-6-oxo-1,6-dihydropyridazine-3-carboxamide] | 250 | 10 |  | 
16 | CN1N=C(C(=O)Nc2ncc(Cc3cncc(Cl)c3)s2)CCC1=O [Compound 231, N-(5-((5-chloropyridin-3-yl)methyl)thiazol-2-yl)-1-methyl-6-oxo-1,4,5,6-tetrahydropyridazine-3-carboxamide] | 8930 | 3170 |  | 
17 | Cn1cccc(C(=O)Nc2ccc(Cc3cccc(F)c3)cn2)c1=O [Compound 140, N-(5-(3-fluorobenzyl)pyridin-2-yl)-1-methyl-2-oxo-1,2-dihydropyridine-3-carboxamide] | 290 | 10 |  | 
18 | Cn1nc(C(=O)Nc2ccc(Cc3cc(F)c(F)c(F)c3)cn2)ccc1=O [Example 41, 1-methyl-6-oxo-N-(5-(3,4,5-trifluorobenzyl)pyridin-2-yl)-1,6-dihydropyridazine-3-carboxamide] | 190 | 10 |  | 
19 | O=C(Nc1ccc(Cc2cccc(Cl)c2)cn1)c1ccc(=O)n(C2CC2)n1 [Compound 256] | 750 | 40 |  | 
20 | CN1N=C(C(=O)Nc2ccc(Cc3cc(Cl)cc(C#N)c3)cn2)CCC1=O [Compound 51, N-(5-(3-chloro-5-cyanobenzyl)pyridin-2-yl)-1-methyl-6-oxo-1,4,5,6-tetrahydropyridazine-3-carboxamide] | > 45000 | 1560 |  | 
21 | CN1N=C(C(=O)Nc2ccc(Cc3cccc(Cl)c3)nn2)CCC1=O [Compound 197, N-(6-(3-chlorobenzyl)pyridazin-3-yl)-1-methyl-6-oxo-1,4,5,6-tetrahydropyridazine-3-carboxamide] | 2750 | 370 |  | 
22 | CCn1cc(C(=O)Nc2ccc(Oc3ccc(F)c(Cl)c3)cn2)ccc1=O [Compound 169, N-[5-(3-chloro-4-fluorophenoxy)pyridin-2-yl]-1-ethyl-6-oxo-1,6-dihydropyridine-3-carboxamide] | > 45000 | 2480 |  | 
23 | O=C(Nc1ccc(Cc2cccc(Cl)c2)cn1)c1ccc(CO)nc1 [Compound 131, N-(5-(3-chlorobenzyl)pyridin-2-yl)-6-(hydroxymethyl)nicotinamide] | 10 | 10 |  | 
24 | N#Cc1ccc(C(=O)Nc2ccc(Cc3cccc(Cl)c3)cn2)nc1 [Compound 129, N-(5-(3-chlorobenzyl)pyridin-2-yl)-5-cyanopicolinamide] | > 45000 | 50 |  | 
25 | Cn1nc(C(=O)Nc2ncc(Cc3cccc(F)c3)s2)ccc1=O [Compound 202, N-(5-(3-fluorobenzyl)thiazol-2-yl)-1-methyl-6-oxo-1,6-dihydropyridazine-3-carboxamide] | 20 | 20 |  | 
26 | Cn1nc(C(=O)Nc2ccc(Cc3ccc(F)c(Cl)c3)cn2)cc1O [Compound 323] | 10700 | 810 |  | 

Second part, led by results:

Row | IC50 (human SCD1; [1]) [nM] | IC50 (human SCD5; [2]) [nM] | SMILES | IC50 (human SCD1; SCD1 IC50) [nM] | IC50 (human SCD5; SCD5 IC50) [nM]
27 | 650 | 2200 | O=C(Nc1ncc(Br)cn1)c1ccc(Cc2cccc(F)c2)cn1 [Compound 631] |  | 
28 | 2700 | 25 | Cn1nc(C(=O)Nc2ccc(Cc3cc(F)cc(F)c3Cl)cn2)ccc1=O [Compound 680] |  | 
29 | > 45000 | 400 | N#Cc1ccc(C(=O)Nc2ccc(Cc3ccc(F)c(F)c3)cn2)nn1 [Compound 576] |  | 
30 | 8100 | 3900 | N#Cc1nc(C(=O)Nc2ccc(Cc3cc(F)cc(F)c3)cn2)co1 [Compound 683] |  | 
31 | > 45000 | 740 | N#Cc1cncc(C(=O)Nc2ccc(Cc3cccc(F)c3)cn2)c1 [Compound 579] |  | 
32 | > 45000 | 5600 | Cn1cc(C(=O)Nc2ccc(Cc3c(F)cccc3F)cn2)ccc1=O [Compound 566] |  | 
33 | 960 | 770 | CC(=O)c1ccc(C(=O)Nc2ccc(Cc3ccc(F)c(F)c3)cn2)nn1 [Compound 516] |  | 
34 | 42 | 10 | Cn1cc(C(=O)Nc2ccc(Cc3cc(F)cc(F)c3)cn2)n(C)c1=O [Compound 644] |  | 
35 | 23000 | 6400 | Cn1nc(C(=O)Nc2ncc(Cc3ccc(F)c(F)c3)cc2F)ccc1=O [Compound 577] |  | 
36 | 10 | 10 | Cn1cc(C(=O)Nc2ccc(Cc3cc(F)cc(Cl)c3)cn2)n(C)c1=O [Compound 668] |  | 
37 | 3100 | 120 | CCn1cc(C(=O)Nc2ccc(Cc3cc(F)cc(C#N)c3)cn2)cn1 [Compound 594] |  | 
38 | > 45000 | 890 | N#Cc1cnc(C(=O)Nc2ccc(Cc3ccc(F)c(F)c3)cn2)nc1 [Compound 549] |  | 
39 | > 45000 | 430 | CNC(=O)c1ccc(C(=O)Nc2ccc(Cc3ccc(F)c(F)c3)cn2)cn1 [Compound 593] |  | 
40 | 10 | 10 | C#CCn1nc(C(=O)Nc2ccc(Cc3cccc(Cl)c3)cn2)ccc1=O [Compound 501] |  | 
41 | 710 | 100 | Cn1cc(C(=O)Nc2ccc(Cc3cccc(C(F)F)c3)cn2)ccc1=O [Compound 545] |  | 
42 | > 45000 | 310 | Cn1nc(C(=O)Nc2ccc(COc3ccc(Cl)c(F)c3)cn2)ccc1=O [Compound 667] |  | 
43 | 31000 | 900 | Cn1nc(C(=O)Nc2ccc(COc3ccc(F)c(F)c3)cn2)ccc1=O [Compound 664] |  | 
44 | 320 | 27 | Cn1nccc(C(=O)Nc2ccc(Cc3cccc(F)c3)cn2)c1=O [Compound 546] |  | 
45 | > 45000 | 62 | O=C(Nc1ccc(Cc2cc(F)cc(F)c2)cn1)c1cnc(Cl)cn1 [Compound 635] |  | 
